Source: patent publication US20150132813A1, “BIOSYNTHETIC PATHWAYS, RECOMBINANT CELLS, AND METHODS” (REGENTS OF THE UNIVERSITY OF MINNESOTA, priority 2012, published 2015)

Test system: α-ketoglutaric semialdehyde dehydrogenase KDHba
Experiment: Enzymatic assay of KDHba (NADH absorbance at 340 nm)
Format: biochemical, Burkholderia ambifaria
[1] = substrate of KDHba, pH 8.0, 0.5 mM NAD+

In the case of `CCCCC=O` [Valeraldehyde, valeraldehyde], the Km [1] is reported as 31 µM, the kcat [1] is reported as 8.69 ± 0.26 s⁻¹ and the “specificity constant (kcat/KM) of KDHba, fold higher than toward isobutyraldehyde” value (versus isobutyraldehyde) is reported as 1260 fold. For the same compound, the “specificity constant (kcat/KM) of KDHba, fold higher than toward isovaleraldehyde” value (versus isovaleraldehyde) was 308 fold.
